Results as given in publication PMC8875508, “Cytotoxic Phenylpropanoid Derivatives and Alkaloids from the Flowers of Pancratium maritimum L” (Plants, 2022).

Key:
Assay type in all cases: cell-based
MDA-MB-231 cells = test: MTT antiproliferative assay, MDA-MB-231; details: Homo sapiens, 72 h, mean of three independent experiments, cutoff 10 µM, read-out: IC50 (Mean + SEM)
Experimental: (§1) HCT116 (Colorectal carcinoma, ATCC CCL-247) and HeLa (human cervical carcinoma, ATCC CCL-2) cells were cultured in RPMI 1640 medium with 10% FBS, and 1% penicillin–streptomycin, while MDA-MB-231 cells (triple-negative breast cancer, ATCC HTB-26) were cultured in DMEM medium with 1% penicillin–streptomycin and 10% FBS.
(§2) The evaluation of the antiproliferative effects compounds 1–7 were performed using MTT assay, as reported earlier. In short, the cells were incubated at 37 °C overnight in 5% CO2/air. After that, the compounds were added at the top row of a 96-well microtiter plate; a descendant serial dilution (1:4) of the concentration was performed followed by incubation of the cells with the compounds for 72 h. Using the Cell Titer 96 AQueous non-radioactive cell proliferation protocol, the cell viability was estimated at 490 nm on a Molecular Devices Emax microplate reader. The IC50 values of the compounds (expressed in μM) were evaluated using the program SoftMax Pro. A concentration of 10 µM was set as a cutoff value in this assay.

HeLa cells = test: MTT antiproliferative assay, HeLa; details: Homo sapiens, 72 h, mean of three independent experiments, cutoff 10 µM, read-out: IC50 (Mean + SEM)
Experimental: as §1, §2

HCT 116 cells = test: MTT antiproliferative assay, HCT 116; details: Homo sapiens, 72 h, mean of three independent experiments, cutoff 10 µM, read-out: IC50 (Mean + SEM)
Experimental: as §1, §2

[1] = test system: normal human dermal fibroblasts (NHDF); test: MTT assay, normal human dermal fibroblasts
Experimental: The normal human dermal fibroblasts (NHDF) cells were cultured in fibroblast basal medium complemented with penicillin–streptomycin (1% v/v), insulin (5 µg/mL), heat-inactivated fetal bovine serum (FBS) (2% v/v), and basic fibroblast growth factor (1 ng/mL).
as §2

[2] = test system: HCT116, HeLa, and MDA-MB-231 cell lines; test: MTT assay, average over the cancerous cell lines; details: Homo sapiens; average of HCT116, HeLa and MDA-MB-231; read-out: average IC50 against the cancerous cell lines
Experimental: as §1, §2

| SMILES | IC50 (MDA-MB-231 cells) [µM] | IC50 (HeLa cells) [µM] | IC50 (HCT 116 cells) [µM] | IC50 ([1]; Homo sapiens, NHDF, MTT, 72 h, mean of three independent experiments, read-out: IC50 (Mean + SEM)) [µM] | selectivity towards the tested cancer cell lines versus NHDF ([1]; NHDF IC50 6.6 µM versus average IC50 0.099 µM of the cancer cell lines) [fold] | IC50 [2] [µM] |
| --- | --- | --- | --- | --- | --- | --- |
| COC(=O)/C=C\c1ccc(O[C@@H]2O[C@H](CO)[C@@H](O)[C@H](O)[C@H]2O)cc1 [Compound 1, 3-[4-(β-D-glucopyranosyloxy)phenyl]-2-(Z)-propenoic acid methyl ester] | ≥ 10 | ≥ 10 | ≥ 10 | – | – | – |
| COC(=O)c1ccc(O[C@@H]2O[C@H](CO)[C@@H](O)[C@H](O)[C@H]2O)c(OC)c1 [Compound 2, 3-methoxy-4-(β-D-glucopyranosyloxy)benzoic acid methyl ester] | ≥ 10 | ≥ 10 | ≥ 10 | – | – | – |
| COc1ccc(CCCO[C@@H]2O[C@H](CO)[C@@H](O)[C@H](O)[C@H]2O)cc1 [Compound 3, 3-(4-methoxyphenyl)propan-1-ol-1-O-β-D-glucopyranoside] | ≥ 10 | ≥ 10 | ≥ 10 | – | – | – |
| O=C(O)/C=C/c1ccc(O)c(O)c1 [Compound 5, caffeic acid] | ≥ 10 | ≥ 10 | ≥ 10 | – | – | – |
| O=c1[nH]cc(F)c(=O)[nH]1 [Compound 5-FU, 5-Fluorouracil, reference compound] | 13 ± 0.3 | 12.3 ± 0.25 | 4.6 ± 0.23 | – | – | – |
| O=C1N[C@H]2[C@H](O)[C@H](O)[C@@H](O)[C@H](O)[C@@H]2c2cc3c(c(O)c21)OCO3 [Compound 7, pancratistatin] | 0.14 ± 0.002 | 0.058 ± 0.001 | 0.1 ± 0.005 | 6.6 ± 0.034 | 66 | 0.099 |
